From patent publication US20180344725A1, “QUINOLONE CHALCONE COMPOUNDS AND USES THEREOF” (priority 2015, published 2018)

Legend:
[1] = test system: MDA-MB231TaxR; experiment: SRB-based cytotoxicity assay, single and combination with paclitaxel; type: cell-based; conditions: for killing of MDA-MB231TaxR compared with parental MDA-MB231: TaxR selected in 100.0 nM paclitaxel
Protocol: All of the cell lines used were purchased from ATCC and cultured in RPMI-1640 supplemented with 10% fetal bovine serum and antibiotics (100 units penicillin/100 μg/ml streptomycin), unless stated otherwise. 1845B5 and MCF-10A non-cancer breast cell lines were cultured in DME/F12 medium supplemented with 10% fetal bovine serum, antibiotics and growth factors. […] The human small cell lung carcinoma H69 cell line and its multidrug-resistant MRP1-overexpressing isogenic H69AR cell line were purchased from ATCC. […] H69 cells grow as large multi-cell aggregates, making it difficult to accurately count cell numbers. […] The IL-6 dependent bortezomib-resistant ANBL6-BR cell line was further supplemented with 1 ng/ml of IL-6. The MCF10AT1 and MCF10CA1a cell lines are isogenic to the MCF10A cell line, and obtained from Dr. Valerie Weaver at the Center for Bioengineering and Tissue Regeneration, UCSF, CA, USA. MCF10AT1 is a premalignant cell line generated by transforming MCF10A with c-Ha-Ras; and MCF10CA1a was isolated by selecting malignant cells after MCF10AT1 cells were engrafted into mice (Liu & Lin 2004; […] et al. 2009). […] The drug-resistant cells were cultured in the absence of drug for at least one passage before carrying out experiments. All cells were maintained in a humidified incubator at 37° C. […] Cell line authentication was performed using short tandem repeat (STR) profiling. For (anti)proliferation assays, 4,000-5,000 cells/well of the 96-well clustered dish were incubated for 16 hours, as described previously (Hu et al., 2008; Skehan et al., 1990). […] Some wells were treated with 100 μl of 10% trichloroacetic acid (TCA) as a negative control and sham (medium with dimethyl sulfoxide; DMSO) treated cells were used as a positive control. […] TCA was removed and cells were washed with cold tap water, and plate was air-dried, followed by addition of 50 μl of 0.4% SRB staining solution to each well. After 30 minutes incubation, SRB staining solution was removed. Cells were washed with 1% acetic acid solution, and then washed with tap water to remove unbound staining solution, followed by air-drying. 200 μl of 10 mM (pH10.5) trizma base buffer was added to each well to solubilise macromolecules. […] Cell growth (inhibition) was calculated by the following formula: % cells proliferation=[(AT-CT)/(ST-CT)]×100 wherein AT=absorbance of treated cells, CT=absorbance of negative control cells, and ST=absorbance of sham treated cells. […] The combinational index (CI) was calculated as described previously (Chou 2006). […] CI values were determined from four independent experiments.

[2] = Liver toxicity by AST and ALT; type: in vivo, mice; conditions: serum
Protocol: For paclitaxel treatments, 40 mg/ml stock solution of paclitaxel (Sigma, MO) was prepared in DMSO. […] Alanine transaminase (ALT, SUP6001-c)/Aspartate transaminase (AST, SUP6002-c) color endpoint assay kits were purchased from ID Labs Biotechnology (London, Ontario, Canada). Elevation of ALT and AST levels in serum samples was used as an indicator of liver damage/injury. Animals were monitored for food and water consumption every day, and their body weights and tumor volumes were measured twice per week. […] Blood samples were collected via cardiac puncture and processed further for ALT and AST measurements. The animals were then immediately euthanized by carbon dioxide. […] The paraffin-embedded blocks were then cut into 4-5 μm thick sections. Each section of tumors and organs was stained with hematoxylin and eosin (H&E). Changes in body weight, hemoglobin (Hb) and the amount and ratio of alanine transaminase (ALT)/aspartate transaminase (AST) were used to measure toxic effects. In addition, vital organs (liver, spleen, kidney and lung) were analyzed by […] after they were harvested, fixed, processed, paraffin-embedded, sectioned, and stained as described above.

[3] = Liver mitotic cells; type: in vivo, mice; conditions: 30 days; 10 mg paclitaxel, 30 mg CTR, or paclitaxel (5 mg) + CTR (15 mg)
Protocol: ATH490 athymic mice were treated as indicated in the listed concentrations for 30 days (FIG. 45A), and then the liver cell proliferation analyzed by examining the number of mitotic cells (white arrows in FIG. 45A). “Tax” denotes paclitaxel. The numbers in the brackets in (FIG. 45B) are mg/kg body weight. […] However, this small increase is considered normal as the AST/ALT ratio is <3 (Table 14).

[4] = Toxicology analysis of spleen (H&E); type: in vivo, mice; design: key to Red Pulp (RP): Myeloid elements: ↑↑: Double and single upward arrows indicate highly and moderately increased, respectively; ↑: Double and single upward arrows indicate highly and moderately increased, respectively; conditions: 30 days, Paclitaxel 10 mg/kg, CTR 30 mg/kg, or Tax (5) + CTR (15)
Protocol: Animals were monitored for food and water consumption every day, and their body weights and tumor volumes were measured twice per week. Tumor volumes were measured with a digital caliper and were determined by using the following formula: ½ length×width^2. Blood samples were collected via cardiac puncture and processed further for ALT and AST measurements. The animals were then immediately euthanized by carbon dioxide. Tumors and vital organs (spleen, kidney, liver and lung) were collected and fixed in 10% buffered formalin at 4° C. overnight before being processed for paraffin embedding. The paraffin-embedded blocks were then cut into 4-5 μm thick sections. Each section of tumors and organs was stained with hematoxylin and eosin (H&E).
Changes in body weight, hemoglobin (Hb) and the amount and ratio of alanine transaminase (ALT)/aspartate transaminase (AST) were used to measure toxic effects. In addition, vital organs (liver, spleen, kidney and lung) were analyzed by […] after they were harvested, fixed, processed, paraffin-embedded, sectioned, and stained as described above.
ATH490 athymic mice were sham-treated (vehicle only) or treated with compounds of the indicated doses for 30 days, followed by toxicity analysis after spleen tissues were H & E stained. The numbers in the brackets are mg per kg of body weight. Arrows indicate the presence of macrophages in the red pulp (RP). Images were taken using a Zeiss EPI-fluorescent microscope (10× objective). Drug administration was carried out as described in Table 11.

[5] = Paclitaxel 10 mg/kg, CTR 30 mg/kg, or Paclitaxel (5) + CTR (15)

Row | Compound | killing of MDA-MB231TaxR compared with parental MDA-MB231 [1] | Cell survival rate ([1]; single agent 23.4 nM) | ALT (IU/L) ([2]; CTR 20 mg/kg) | AST (IU/L) ([2]; CTR 20 mg/kg) | ALT (IU/L) [2, 5] [IU/L] | AST (IU/L) [2, 5] [IU/L] | mitotic index in the liver [3] | Capsule [4] | Red Pulp (RP): Myeloid elements [4] | White pulp (WP) [4] | Cell survival rate ([1]; single agent 0.3 μM) | Cell survival rate ([1]; single agent 18.75 nM) | Cell survival rate ([1]; single agent 37.5 nM) | Cell survival rate ([1]; single agent 75.0 nM) | Cell survival rate ([1]; single agent 150 nM) | Cell survival rate ([1]; single agent 300 nM)
1 | COc1ccccc1C(=O)/C=C/c1cc2cccc(OC)c2[nH]c1=O [CTR-21, (E)-8-methoxy-3-(3-(2-methoxyphenyl)-3-oxoprop-1-enyl) quinolin-2(1H)-one] | to the same degree as the parental MDA-MB231 cells | 52.10 ± 3.71 | – | – | – | – | – | – | – | – | – | – | – | – | – | –
2 | CCOc1ccccc1C(=O)/C=C/c1cc2ccccc2[nH]c1=O [CTR-32, (E)-3-(3-(2-ethoxyphenyl)-3-oxoprop-1-enyl)quinolin-2(1H)-one] | to the same degree as the parental MDA-MB231 cells | 53.07 ± 6.50 | – | – | – | – | – | – | – | – | – | – | – | – | – | –
3 | COc1ccccc1C(=O)/C=C/c1cc2ccccc2[nH]c1=O [CTR-17, (E)-3-(3-(2-Methoxyphenyl)-3-oxoprop-1-enyl)quinolin-2(1H)-one] | to the same degree as the parental MDA-MB231 cells | – | 63.59 ± 9.73 | 101.00 ± 10.19 | 64.67 ± 5.26 | 114.13 ± 6.36 | small increases in the mitotic index | Normal | elements: ↑ | Less but bigger | – | – | – | – | – | –
4 | COc1ccc2[nH]c(=O)c(/C=C/C(=O)c3ccccc3OC)cc2c1 [CTR-20, (E)-6-Methoxy-3-(3-(2-methoxyphenyl)-3-oxoprop-1-enyl) quinolin-2(1H)-one] | to the same degree as the parental MDA-MB231 cells | – | 56.77 ± 5.34 | 119.19 ± 4.03 | 50.50 ± 9.96 | 118.22 ± 17.00 | small increases in the mitotic index | Normal | elements: ↑ | Less but bigger | 63.7 ± 2.52 | – | – | – | – | –
5 | CC(=O)O[C@H]1C(=O)[C@@]2(C)[C@H]([C@H](OC(=O)c3ccccc3)[C@]3(O)C[C@H](OC(=O)[C@H](O)[C@@H](NC(=O)c4ccccc4)c4ccccc4)C(C)=C1C3(C)C)[C@]1(OC(C)=O)CO[C@@H]1C[C@@H]2O [Paclitaxel, reference compound] | – | – | – | – | 52.02 ± 2.59 | 111.14 ± 13.42 | small increases in the mitotic index | Normal | elements: ↑↑^a | Less but bigger | – | 95.84 ± 1.86 | 90.28 ± 3.58 | 90.98 ± 4.49 | 82.41 ± 5.00 | 57.75 ± 3.78
